# In US11999759B2, “Boronic acid derivatives and therapeutic uses thereof” (Qpex Biopharma, Inc., priority 2016, dated 2024):
# Assays:
# [1] = Stability of compound 13 prodrugs in human serum; format: in vitro ADME; conditions: 37° C., prodrug 50.0 μg/mL
# Description: The rate of hydrolysis for several prodrugs of 13 was evaluated in vitro by measuring their stability in human serum and human liver microsomes. All serum stability experiments were conducted by aliquoting 10 μL of test compound at 500 μg/mL (10× final concentration) in 95:5 water:acetonitrile v/v into 1.5 mL Eppendorf tubes. […] The tubes were then warmed to 37° C. in a water bath along with human serum (Bioreclamations) in a separate tube. Serum esterase activity for each lot of serum used was established by assaying an unrelated ester prodrug as a control. To initiate the reaction, 90 μL of serum was added to tubes for all timepoints using a repeating-tip pipette, thereby bringing the final concentration of test compound to 50 μg/mL and the final concentration of acetonitrile to 0.5% v/v. At each timepoint, the reaction was halted and serum proteins precipitated through the addition of an equal volume of cold acetonitrile containing 25 μg/mL diclofenac as an internal standard. […] Sample analysis for serum stability experiments was conducted using an Agilent 1100 binary pump HPLC equipped with a diode array detector set to monitor absorbance at 286 nm (8 nm bandwidth). […] The samples were analyzed together with appropriate blanks in order to ensure specificity. […] The rate of activation was determined by monitoring the concentration of test compound as follows. The peak area for the analyte was divided by the peak area for the internal standard to give an area ratio. The area ratio for each timepoint was divided by the area ratio for timepoint 0 to give the percent remaining at each timepoint. The natural logarithm of the percent remaining versus time was plotted using Microsoft Excel and fitted to a linear trendline.
# [2] = Stability of compound 13 prodrugs in human liver microsomes (HLM); format: in vitro ADME; conditions: 0.500 mg/mL human liver microsomes, no cofactors, prodrug 1.00 μM
# Description: In the meantime, a 20.0 mg/mL solution of human liver microsomes (XenoTech, LLC) was diluted to 1.00 mg/mL (2× final concentration). Esterase activity for each lot of microsomes used was established by assaying an unrelated ester prodrug as a control. Both the Eppendorfs for each timepoint and the diluted liver microsomes were then warmed to 37° C. in a water bath. No cofactors (e.g. NADPH) were added to ensure that only hydrolytic reactions as opposed to reactions mediated by other cofactor-dependent enzymes (e.g. CYP450 enzymes) would take place. To initiate the reaction, 50 μL of diluted human liver microsomes was added to tubes for all timepoints using a repeating-tip pipette, thereby bringing the final concentration of test compound to 1.00 μM and the final concentration of human liver microsomes to 0.500 mg/mL. At each timepoint, the reaction was halted and proteins precipitated through the addition of 200 μL of 10:45:45 water:methanol:acetonitrile v/v/v containing an unrelated ester prodrug at 250 ng/mL as an internal standard. […] Sample analysis for microsome stability experiments was conducted using a 20.0 μL injection on a LEAP PAL autosampler with Agilent 1100 binary pump HPLC coupled to an AB Sciex 3200 QTrap mass spectrometer. […] Detection was in positive mode; source parameters and parent-daughter ion selection criteria were chosen as needed for each compound to achieve an appropriate limit of detection and signal-to-noise ratio. The samples were analyzed together with appropriate blanks in order to ensure specificity. The rate of hydrolysis for each prodrug was determined by monitoring the concentration of test compound as follows. The peak area for the analyte was divided by the peak area for the internal standard to give an area ratio. The area ratio for each of the two replicates at each timepoint was divided by the area ratio for timepoint 0 to give the percent remaining at each timepoint. The natural logarithm of the percent remaining versus time for all replicates was plotted using Microsoft Excel and fitted to a linear trendline.
# [3] = test system: PAM1032/KPC-2 (overexpressed MexAB-OprM); test: Biapenem potentiation (MPC64) in PAM1032/KPC-2; format: cell-based, Pseudomonas aeruginosa; set-up: PAM1032/KPC-2 Biapenem MPC64: unit not given here; conditions: BLI potency to decrease biapenem MIC 64-fold, from 32 to 0.5 μg/ml; efflux proficient strain
# Description: (§1) Efflux of BLIs from Pseudomonas aeruginosa by the MexAB-OprM efflux pump was also evaluated. The plasmid expressing the gene encoding KPC-2 was introduced into two strains of P. aeruginosa, PAM1032 and PAM1154 that overexpressed or lacked MexAB-OprM, respectively. Due to expression of KPC-2 both strains became resistant to biapenem. […] Potency of BLIs to potentiate biapenem in these strains was determined. […] The ratio of MPC64 values for each BLI in PAM1032/KPC-2 (efflux proficient) and PAM1154/KPC-2 (efflux deficient) was determined to generate the Efflux Index (EI) as shown in Table 8.
# IMP-1 = IMP-1 (Serratia marcescens, UniProt P52699); test: Inhibition of imipenem cleavage by purified IMP-1; format: biochemical; conditions: imipenem reporter substrate; 37° C.; read-out: Ki (IMP-1, IMI)
# IMP-1, sequence (P52699 19-246, looked up, species assumed): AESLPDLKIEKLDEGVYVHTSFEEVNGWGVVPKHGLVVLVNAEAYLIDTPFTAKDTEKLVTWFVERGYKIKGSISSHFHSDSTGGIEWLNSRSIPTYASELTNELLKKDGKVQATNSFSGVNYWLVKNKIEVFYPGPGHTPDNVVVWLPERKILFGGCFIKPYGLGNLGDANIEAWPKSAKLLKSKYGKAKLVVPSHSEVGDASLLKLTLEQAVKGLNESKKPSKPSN
# Description: Ki values of inhibition of purified class B enzymes NDM-1 and IMP-1 were determined spectrophotometrically using imipenem as reporter substrate. Purified enzymes were mixed with various concentrations of inhibitors in reaction buffer and incubated for 10 min at room temperature. Imipenem was added and substrate cleavage profiles were recorded at 294 nm every 30 seconds for 30 minutes at 37° C. These experiments further confirmed that the described compounds have the ability to inhibit carbapenemase activity of metallo-beta-lactamases.
# [4] = test system: PAM1154/KPC-2 (lacked MexAB-OprM); test: Biapenem potentiation (MPC64) in PAM1154/KPC-2; format: cell-based, Pseudomonas aeruginosa; set-up: PAM1154/KPC-2 Biapenem MPC64: unit not given here; conditions: BLI potency to decrease biapenem MIC 64-fold, from 32 to 0.5 μg/ml; efflux deficient strain
# Description: as §1
# NDM-1 = NDM-1 (Klebsiella pneumoniae, UniProt C7C422); test: Inhibition of imipenem cleavage by purified NDM-1; format: biochemical; conditions: imipenem reporter substrate; 37° C.; read-out: Ki (NDM-1, IMI)
# NDM-1, sequence (C7C422 29-270, looked up, species assumed): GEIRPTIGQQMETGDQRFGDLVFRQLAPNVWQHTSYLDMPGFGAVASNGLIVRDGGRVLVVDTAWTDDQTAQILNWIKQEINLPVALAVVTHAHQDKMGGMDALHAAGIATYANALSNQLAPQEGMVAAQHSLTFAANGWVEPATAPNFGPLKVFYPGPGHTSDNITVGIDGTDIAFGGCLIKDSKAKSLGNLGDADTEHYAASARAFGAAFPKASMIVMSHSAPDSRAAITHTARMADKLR
# Description: Purified enzymes were mixed with various concentrations of inhibitors in reaction buffer and incubated for 10 min at room temperature. Imipenem was added and substrate cleavage profiles were recorded at 294 nm every 30 seconds for 30 minutes at 37° C.
# OXA-48 = OXA-48 (Klebsiella pneumoniae, UniProt Q6XEC0); test: Inhibition of nitrocefin cleavage by purified OXA-48; format: biochemical; conditions: nitrocefin reporter substrate; 10 min preincubation at room temperature; read-out: Ki (OXA-48, NCF)
# OXA-48, sequence (Q6XEC0 23-265, looked up): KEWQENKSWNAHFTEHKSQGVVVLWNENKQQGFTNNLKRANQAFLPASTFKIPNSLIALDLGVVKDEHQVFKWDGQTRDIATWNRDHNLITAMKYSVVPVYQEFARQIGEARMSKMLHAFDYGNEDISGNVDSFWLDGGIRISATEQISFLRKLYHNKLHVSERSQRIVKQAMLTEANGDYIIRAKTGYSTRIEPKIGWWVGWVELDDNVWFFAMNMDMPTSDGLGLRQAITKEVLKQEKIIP
# Description: (§2) Ki values of inhibition of purified class A, C and D enzymes were determined spectrophotometrically using nitrocefin as reporter substrate. Purified enzymes were mixed with various concentrations of inhibitors in reaction buffer and incubated for 10 min at room temperature. Nitrocefin was added and substrate cleavage profiles were recorded at 490 nm every 10 sec for 10 min. These experiments confirmed that the described compounds are inhibitors with a broad-spectrum of activity towards various β-lactamases.
# OXA-23 = OXA-23 (Acinetobacter baumannii, UniProt Q9L4P2); test: Inhibition of nitrocefin cleavage by purified OXA-23; format: biochemical; conditions: nitrocefin reporter substrate; 10 min preincubation at room temperature; read-out: Ki (OXA-23, NCF)
# OXA-23, sequence (Q9L4P2 18-273): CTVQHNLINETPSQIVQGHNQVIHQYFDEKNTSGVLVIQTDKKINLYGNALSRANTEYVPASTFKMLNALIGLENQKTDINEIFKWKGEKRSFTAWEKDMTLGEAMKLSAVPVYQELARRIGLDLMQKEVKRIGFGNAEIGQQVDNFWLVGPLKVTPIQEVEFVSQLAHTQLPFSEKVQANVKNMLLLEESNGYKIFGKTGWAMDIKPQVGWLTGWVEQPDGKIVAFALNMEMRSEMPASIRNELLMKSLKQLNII
# Description: as §2
# KPC-2 = KPC-2 (Klebsiella pneumoniae, UniProt Q9F663); test: Inhibition of nitrocefin cleavage by purified KPC-2; format: biochemical; conditions: nitrocefin reporter substrate; 10 min preincubation at room temperature; read-out: Ki (KPC-2, NCF)
# KPC-2, sequence (Q9F663 25-293 limits assumed): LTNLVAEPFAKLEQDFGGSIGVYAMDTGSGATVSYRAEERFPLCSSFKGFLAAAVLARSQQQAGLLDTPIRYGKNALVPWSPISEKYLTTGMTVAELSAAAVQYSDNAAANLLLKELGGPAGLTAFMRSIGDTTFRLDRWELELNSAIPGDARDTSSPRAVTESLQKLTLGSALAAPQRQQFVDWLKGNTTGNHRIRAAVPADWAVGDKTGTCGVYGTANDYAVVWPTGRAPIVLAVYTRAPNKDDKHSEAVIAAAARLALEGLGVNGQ
# Description: as §2
# P99 = P99 (Enterobacter cloacae, UniProt P05364); test: biochemical; conditions: nitrocefin reporter substrate; 10 min preincubation at room temperature; read-out: Ki (P99, NCF)
# P99, sequence (P05364 21-381): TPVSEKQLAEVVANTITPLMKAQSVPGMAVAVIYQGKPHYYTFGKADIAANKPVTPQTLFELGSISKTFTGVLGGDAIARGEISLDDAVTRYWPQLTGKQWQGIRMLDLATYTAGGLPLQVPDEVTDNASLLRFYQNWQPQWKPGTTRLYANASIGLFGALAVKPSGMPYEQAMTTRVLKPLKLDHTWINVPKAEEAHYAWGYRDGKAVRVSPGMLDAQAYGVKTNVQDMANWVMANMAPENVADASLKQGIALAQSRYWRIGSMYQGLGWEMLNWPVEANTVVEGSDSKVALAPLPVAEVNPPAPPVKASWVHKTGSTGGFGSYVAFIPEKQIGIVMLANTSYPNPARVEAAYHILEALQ
# Description: (§3) Ki values of inhibition of purified class A, C and D enzymes were determined spectrophotometrically using nitrocefin as reporter substrate. Purified enzymes were mixed with various concentrations of inhibitors in reaction buffer and incubated for 10 min at room temperature. Nitrocefin was added and substrate cleavage profiles were recorded at 490 nm every 10 sec for 10 min.
# Pa-AmpC = Pa-AmpC (Pseudomonas aeruginosa, UniProt P24735); test: biochemical; conditions: nitrocefin reporter substrate; 10 min preincubation at room temperature; read-out: Ki (Pa-AmpC, NCF)
# Pa-AmpC, sequence (P24735 27-397): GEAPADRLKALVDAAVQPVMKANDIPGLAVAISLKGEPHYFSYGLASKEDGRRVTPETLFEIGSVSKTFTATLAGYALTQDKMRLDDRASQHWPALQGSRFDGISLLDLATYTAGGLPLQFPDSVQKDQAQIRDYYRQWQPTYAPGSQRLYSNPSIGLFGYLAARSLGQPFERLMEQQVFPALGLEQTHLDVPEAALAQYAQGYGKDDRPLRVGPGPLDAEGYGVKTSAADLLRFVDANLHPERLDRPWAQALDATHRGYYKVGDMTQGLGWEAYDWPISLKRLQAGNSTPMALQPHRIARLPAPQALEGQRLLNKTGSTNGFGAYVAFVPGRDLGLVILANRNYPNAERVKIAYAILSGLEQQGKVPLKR
# Description: as §3
# VIM-1 = VIM-1 (Pseudomonas aeruginosa, UniProt A0A0F7KYQ8); test: Inhibition of nitrocefin cleavage by purified VIM-1; format: biochemical; conditions: nitrocefin reporter substrate; 10 min preincubation at room temperature; read-out: Ki (VIM-1, NCF)
# CTX-M-14 = CTX-M-14 (Escherichia coli, UniProt Q9L5C7); test: Inhibition of nitrocefin cleavage by purified CTX-M-14; format: biochemical; conditions: nitrocefin reporter substrate; 10 min preincubation at room temperature; read-out: Ki (CTX-M-14, NCF)
# CTX-M-14, sequence (Q9L5C7 29-291, species assumed): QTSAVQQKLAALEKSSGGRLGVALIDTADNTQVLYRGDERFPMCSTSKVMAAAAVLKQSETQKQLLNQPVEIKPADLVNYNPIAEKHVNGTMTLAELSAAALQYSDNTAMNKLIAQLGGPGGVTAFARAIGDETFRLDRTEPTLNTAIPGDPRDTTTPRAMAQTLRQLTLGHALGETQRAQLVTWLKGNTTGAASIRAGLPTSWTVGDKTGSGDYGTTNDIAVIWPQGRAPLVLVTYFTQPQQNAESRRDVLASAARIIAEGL
# Description: as §3
SMILES,% of initial area ratio at t = 0 min [1] [%],% of initial area ratio at t = 5 min [1] [%],% of initial area ratio at t = 10 min [1] [%],% of initial area ratio at t = 30 min [1] [%],Average % of initial area ratio at t = 0 min ([2]; t = 0 min) [%],Average % of initial area ratio at t = 5 min ([2]; t = 5 min) [%],Average % of initial area ratio at t = 10 min ([2]; t = 10 min) [%],Average % of initial area ratio at t = 30 min ([2]; t = 30 min) [%],"half-life at 1 μM ([2]; pH 7.4, read-out: Estimated half-life (minutes) (rounded to nearest integer value)) [min]",PAM1032/KPC-2 Biapenem MPC64 [3],Ki (IMP-1) [nM],PAM1154/KPC-2 Biapenem MPC64 [4],Ki (NDM-1) [nM],Ki (OXA-48) [nM],Ki (OXA-23) [nM],Ki (KPC-2) [nM],Ki (P99) [nM],Ki (Pa-AmpC) [nM],Ki (VIM-1) [nM],Ki (CTX-M-14) [nM]
"Cc1oc(=O)oc1COC(=O)c1c(F)ccc2c1OB(O)[C@@H]1C[C@H]21 [Compound 33, (5-Methyl-2-oxo-1,3-dioxol-4-yl)methyl (1aR,7bS)-5-fluoro-2-hydroxy-1a,7b-dihydro-1H-cyclopropa[c][1,2]benzoxaborinine-4-carboxylate]",100,48.4,15.4,0,,,,,,,,,,,,,,,,
"CC(=O)OCC(=O)OCOC(=O)c1c(F)ccc2c1OB(O)[C@@H]1C[C@H]21 [Compound 42, (2-Acetoxyacetyl)oxymethyl (1aR,7bS)-5-fluoro-2-hydroxy-1a,7b-dihydro-1H-cyclopropa[c][1,2]benzoxaborinine-4-carboxylate]",100,29.1,8.1,0,100,27.1,10.3,0.4,4,,,,,,,,,,,
"O=C(O)c1cccc2c1OB(O)CC21CC1 [Compound 14, 4,4-dihydroxyspiro[5-oxa-4-boranuidabicyclo[4.4.0]deca-1(6),7,9-triene-2,1′-cyclopropane]-7-carboxylic acid]",,,,,,,,,,40,> 1000,1.25,< 100,< 100,< 100,< 100,< 100,< 100,> 1000,< 100
"COc1ccc2c(c1C(=O)O)OB(O)[C@@H]1COC[C@H]21 [Compound 23, (3aS,9bS)-4,4-dihydroxy-7-methoxy-1,3,3a,9b-tetrahydrofuro[3,4-c][1,2]benzoxaborinine-6-carboxylic acid]",,,,,,,,,,20,> 1000,20,< 100,< 100,< 100,< 100,< 100,100 to 1000,100 to 1000,< 100

# The next lines start with results.
% of initial area ratio at t = 0 min [1] [%],% of initial area ratio at t = 5 min [1] [%],% of initial area ratio at t = 10 min [1] [%],% of initial area ratio at t = 30 min [1] [%],SMILES,Average % of initial area ratio at t = 0 min ([2]; t = 0 min) [%],Average % of initial area ratio at t = 5 min ([2]; t = 5 min) [%],Average % of initial area ratio at t = 10 min ([2]; t = 10 min) [%],Average % of initial area ratio at t = 30 min ([2]; t = 30 min) [%],"half-life at 1 μM ([2]; pH 7.4, read-out: Estimated half-life (minutes) (rounded to nearest integer value)) [min]",PAM1032/KPC-2 Biapenem MPC64 [3],Ki (IMP-1) [nM],PAM1154/KPC-2 Biapenem MPC64 [4],Ki (NDM-1) [nM],Ki (OXA-48) [nM],Ki (OXA-23) [nM],Ki (KPC-2) [nM],Ki (P99) [nM],Ki (Pa-AmpC) [nM],Ki (VIM-1) [nM],Ki (CTX-M-14) [nM]
100,86.8,77.2,38.7,"O=C(OCOC(=O)c1c(F)ccc2c1OB(O)[C@@H]1C[C@H]21)OC1COC1 [Compound 32, Oxetan-3-yloxycarbonyloxymethyl (1aR,7bS)-5-fluoro-2-hydroxy-1a,7b-dihydro-1H-cyclopropa[c][1,2]benzoxaborinine-4-carboxylate]",,,,,,,,,,,,,,,,
100,69.3,59.4,41.1,"O=C(OCOC(=O)C1CCOCC1)c1c(F)ccc2c1OB(O)[C@@H]1C[C@H]21 [Compound 39, Tetrahydropyran-4-carbonyloxymethyl (1aR,7bS)-5-fluoro-2-hydroxy-1a,7b-dihydro-1H-cyclopropa[c][1,2]benzoxaborinine-4-carboxylate]",,,,,,,,,,,,,,,,
